The results in this text go back to ChEMBL document CHEMBL1201862, “PubChem BioAssay data set” (2004).

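These data come from cells grown in 96-well plates and exposed to compound for 48 hours at five concentrations. GI50 is the concentration that inhibits growth by half.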 Calls of active or inactive are those of the source. No stated cut-off is given here; in the data, active = GI50 up to about 1.1 µM and inactive = higher.

Assay in all cases: DTP human tumour cell line panel, 48 h
For assay [1], the system named is NCI-H522.
The test system of assay [2] is MDA-MB-435.
The subject of assay [3] is SK-MEL-5.
In assay [4] the test system is MDA-MB-231.
Assay [5] has as its system UO-31.
Assay [6] has as its system SR.
Assay [7] relates to A498.
The subject of assay [8] is SF-268.
In assay [9] the test system is CCRF-CEM.
Assay [10] relates to OVCAR-5.
For assay [11], the system named is NCI-H460.
For assay [12], the system named is RPMI-8226.
In assay [13] the test system is MOLT-4.
The test system of assay [14] is NCI/ADR-RES.
Assay [15] relates to PC-3.
For assay [16], the system named is HOP-62.
Assay [17] concerns SNB-75.
For assay [18], the system named is SK-OV-3.
Assay [19] has as its system SNB-19.

The GI50 is the concentration giving 50% growth inhibition. On to `COc1ccc(OC)c([N+](=O)[O-])c1-c1nc2sc(C)cn2c1/C=N/N=C(N)N`, for which the GI50 was 20 µM (inactive) in assay [1]; 20.1 µM (inactive) in assay [2]; 18.7 µM (inactive) in assay [3]; 23.7 µM (inactive) in [4]; > 100 µM (inactive) in [5]; < 0.01 µM (active) in [6]. In addition, the GI50 in assay [7] is 34.7 µM (inactive); in [8], 27.6 µM (inactive); in assay [9], 42.2 µM (inactive); in assay [10], 51.4 µM (inactive); in assay [11], 29.6 µM (inactive); in [12], 37.8 µM (inactive). The GI50 is < 0.01 µM (active) in [13], > 100 µM (inactive) in [14], 23.3 µM (inactive) in assay [15] and 43.5 µM (inactive) in [16].

As to `Cc1cc(N2CCOCC2)nc2ccc(Cc3ccc4nc(N5CCOCC5)cc(C)c4c3)cc12`, the GI50 in assay [1] is 26.5 µM (inactive); in [2], 43.3 µM (inactive); in [3], 16.2 µM (inactive); in [4] it was > 100 µM (inactive); in [5], 38.2 µM (inactive); in [6], 28.3 µM (inactive). The GI50 in assay [17] is 35.2 µM (inactive); in assay [7], 59.4 µM (inactive); in assay [8] it was > 100 µM (inactive); in assay [18], > 100 µM (inactive); in [10], > 100 µM (inactive); in [11] it was 26.7 µM (inactive). Besides, the GI50 was 20.2 µM (inactive) in assay [12]; 28.8 µM (inactive) in assay [13]; 41.8 µM (inactive) in assay [14]; 49.9 µM (inactive) in assay [19]; 56.4 µM (inactive) in assay [15]; > 100 µM (inactive) in assay [16].

Consider `CSc1cc(Cl)c(C)cc1S(=O)(=O)NC(=O)NNc1ccc(F)c(Cl)c1`, for which the GI50 in assay [1] is > 100 µM (inactive); in [2], > 100 µM (inactive); in assay [3], > 100 µM (inactive); in assay [4] it was > 100 µM (inactive); in [6] it was 61 µM (inactive); in assay [17], > 100 µM (inactive). For the same compound, the GI50 in assay [7] was > 100 µM (inactive); in [8], > 100 µM (inactive); in assay [9], 54.3 µM (inactive); in assay [18] it was > 100 µM (inactive); in assay [10], > 100 µM (inactive); in assay [11], > 100 µM (inactive). Besides, the GI50 is 45.7 µM (inactive) in assay [13]; > 100 µM (inactive) in assay [14]; > 100 µM (inactive) in assay [19]; > 100 µM (inactive) in [15]; > 100 µM (inactive) in [16].

With `c1cc2c(cc1C(N1CCNCC1)N1CCNCC1)OCO2`, the GI50 in [1] was > 100 µM (inactive); in assay [2], > 100 µM (inactive); in assay [3], > 100 µM (inactive); in [4] it was > 100 µM (inactive); in assay [5] it was > 100 µM (inactive); in assay [6] it was 9.64 µM (inactive). For the same compound, the GI50 in assay [17], in assay [7], in assay [8], in assay [18], in assay [10] and in [11] was > 100 µM (inactive) each time. Further, the GI50 in [12] is 40.9 µM (inactive); in assay [14], > 100 µM (inactive); in assay [19], > 100 µM (inactive); in assay [15], > 100 µM (inactive); in [16], > 100 µM (inactive).
